# Assay results from paper PMC11484942, “Rumicidins are a family of mammalian host-defense peptides plugging the 70S ribosome exit tunnel” (Nature Communications, 2024).
# Ends that are not written are not given here.
# What was measured:
# E. coli 1057 WT = test: microbe, parasite or virus in culture; type: cell-based, Escherichia coli; details: MHB + 0.9% NaCl
# [1] = test system: E. coli 1057 R2 (rpoS^Q3stop, macB^N470D); details: MHB + 0.9% NaCl
# Description: Minimum inhibitory concentrations (MIC) were determined by broth microdilution assay based on Clinical and Laboratory Standards Institute (CLSI) guidelines using BSA in the growth medium to minimize AMP nonspecific adsorption. Bacterial test cultures were grown in the Mueller-Hinton broth (MHB, Sigma) at 37 °C to mid-log phase and then diluted with the 2× MH medium supplemented with 1.8% NaCl (or without salt) so that to reach a final cell concentration of 10^6 CFU/mL. 50 µL of the obtained bacterial suspension were added to aliquots of 50 µL of the peptide solutions serially diluted with sterilized 0.1% bovine serum albumin (BSA) in 96-well flat-bottom polystyrene microplates (Eppendorf #0030730011). […] To verify MIC values, the respiratory activity of the bacteria was determined. Briefly, 5 µL of 0.5 mg/mL resazurin (Sigma) was added to the wells after 24 h (or after 48 h for M. smegmatis) of incubation, and the plate was incubated for additional 3 h. In some cases, MICs were determined in the Lysogeny Broth (LB) or Middlebrook 7H9 medium. The reduction of resazurin to resorufin was recorded. […] The results were expressed as the median values determined based on at least three independent experiments performed in triplicate.
# Resistance induction experiments were performed using the previously described method. This approach allows for monitoring MIC values after each transfer. Briefly, on the first day, the overnight culture of the wild-type bacteria was diluted with the 2× MHB supplemented with 1.8% NaCl (or without salt) to reach a final cell concentration of 10^6 CFU/mL. 50 µL of the obtained bacterial suspension were added to aliquots of 50 µL of the peptide solutions serially diluted with the sterilized 0.1% BSA in 96-well flat-bottom polystyrene microplates. After incubation for 20 ± 2 h at 37 °C and 950 rpm, MICs were determined as described above. For each subsequent daily transfer, 2–4 μL of the inoculum taken from the first well containing a sub-inhibitory drug concentration was diluted with 2 mL of the fresh 2× MHB supplemented with 1.8% NaCl (or without salt). […] Multiple repeated passages in the presence of antimicrobial agents were performed for each bacterial strain during the experiment. Bacteria that grew at the highest concentrations of AMPs on the final day were passaged further 3 times on drug-free agar plates before determining the final MIC value.
# HaCaT (keratinocytes) = test: MTT cytotoxicity; type: cell-based, human; details: mean
# Description: (§1) Hemolytic activity of the peptides was tested against the fresh suspension of human red blood cells (hRBC) using the hemoglobin release assay as described previously. Two experiments were performed with the hRBC from blood samples collected from healthy donors by certified medical personnel upon informed written consent. All procedures were approved by the Ethics Committee of the Institute of Experimental Medicine (protocol 1/20 of 2/27/2020) and comply with the ethical principles of the Declaration of Helsinki. The quantitative data were represented as average means with standard deviations. The colorimetric 3-(4,5-dimethylthiazol-2-yl)-2,5-diphenyltetrazolium bromide (MTT) dye reduction assay was used to determine cytotoxicity of the peptides against human keratinocyte cell line (HaCaT) and transformed human embryonic kidney cells (HEK293T). Both cell lines were purchased from American Type Culture Collection (ATCC). 10^4 cells per well in Dulbecco’s modified Eagle’s medium (DMEM/F12) supplemented with 10% fetal bovine serum (FBS, Invitrogen) were placed into 96-well plates and then cultured in the CO2-incubator (5% CO2, 37 °C). After the media were removed, the peptides were dissolved in 100 µL of the same medium and added to cell cultures at different final concentrations. 20 h later, 20 μL of MTT (5 mg/mL, Sigma) was added to each well, and the plates were incubated for 4 h at 37 °C. Then, the media were discarded and 100 µL DMSO-isopropanol mixture at a ratio of 1:1 (v/v) was added to each well to dissolve the crystallized formazan. The absorbance at 570 nm was measured by a microplate reader AF2200 (Eppendorf). An optical density in the wells containing cells cultured without the peptides was assumed to represent 100% cell viability. Two independent experiments were performed for each peptide.
# [2] = test system: HEK293T (transformed embryonic kidney cells); test: MTT cytotoxicity; type: cell-based, human; details: mean
# Description: as §1
# [3] = test system: E. coli BL21 (DE3) Star cell extract; test: Cell-free protein synthesis (coupled transcription/translation) of EGFP; type: biochemical, Escherichia coli; details: minimum concentration that provides >90% inhibition of the EGFP synthesis in the CFPS system
# Description: To investigate the effects of AMPs and antibiotics on the coupled transcription/translation process, the test compounds were added to a cell-free protein synthesis (CFPS) reaction mix with a plasmid encoding enhanced green fluorescent protein (EGFP) variant (F64L, S65T, Q80R, F99S, M153T, and V163A) under control of the T7 promoter. The cell lysate was prepared using the E. coli BL21 Star (DE3) overexpressed T7 RNA polymerase as described previously. The reaction mix consisted of the following components: 1.2 mM ATP, 0.8 mM UTP, 0.8 mM GTP, 0.8 mM CTP, 2 mM of each of 20 proteinogenic amino acids, 1.5 mM spermidine, 1 mM putrescine dihydrochloride, 0.06647 mM calcium folinate, […] tRNA from the E. coli MRE 600 strain, 0.33 mM NAD, 120 mM HEPES-KOH (pH 8.0), 10 mM ammonium glutamate, 175 mM potassium glutamate, 60 mM glucose, 15 mM magnesium glutamate, 2% PEG 8000, 25% E. coli BL21 Star (DE3) cell lysate, 1 ng/ml plasmid DNA. The reaction volume was 50 µL. The peptides were dissolved in PBS with the addition of 0.1% BSA. Erythromycin was used in the positive control reactions. The fluorescence of the sample without inhibitor was set as the 100% value. The reaction proceeded for 2 h in 96-well v-bottom black polystyrene microplates (Eppendorf #0030601904) in a plate shaker (30 °C, 1000 rpm). The fluorescence of the synthesized EGFP was measured with the microplate reader AF2200 (λEx = 488 nm, λEm = 510 nm; Eppendorf). The experimental data were obtained from at least two independent experiments performed in triplicate. Non-linear regression curves were generated using GraphPad Prism v.8.0.1 (GraphPad Software Inc.).
# E. coli BW25113 = test: MIC broth microdilution; type: cell-based, Escherichia coli; details: for Minimum inhibitory concentration MHB + 0.9% NaCl: Mueller-Hinton broth + 0.9% NaCl; for Minimum inhibitory concentration MHB + 0.9% NaCl / Minimum inhibitory concentration MHB: 24 h 37 °C, median of ≥3 experiments; for Minimum inhibitory concentration MHB: Mueller-Hinton broth without salt; for fold change of MIC vs wild-type rumicidin-1: N-terminal shortening
# Description: (§2) The reduction of resazurin to resorufin was recorded.
# [4] = test system: Mycobacterium smegmatis mc(2)155; type: cell-based; details: Mycobacterium mc(2)155, 24 h
# Description: as §2
# S. aureus ATCC 29213 = type: cell-based, Staphylococcus aureus; details: ATCC 29213, 24 h
# Description: as §2
compound,measurement,setting,value
CC1(C)S[C@@H]2[C@H](NC(=O)[C@H](N)c3ccccc3)C(=O)N2[C@H]1C(=O)O [Ampicillin],MIC,"E. coli 1057 WT; Escherichia coli, 1057WT, 24 h",> 128 µM
CO/N=C(\C(=O)N[C@@H]1C(=O)N2C(C(=O)O)=C(CSc3nc(=O)c(=O)[nH]n3C)CS[C@H]12)c1csc(N)n1 [Ceftriaxone],MIC,"E. coli 1057 WT; Escherichia coli, 1057WT, 24 h",128 µM
O=C(N[C@H](CO)[C@H](O)c1ccc([N+](=O)[O-])cc1)C(Cl)Cl [Chloramphenicol],MIC,"E. coli 1057 WT; Escherichia coli, 1057WT, 24 h",16 µM
CCC[C@@H]1C[C@@H](C(=O)N[C@@H]([C@H]2O[C@H](SC)[C@H](O)[C@@H](O)[C@H]2O)[C@H](C)Cl)N(C)C1 [Clindamycin],MIC,"E. coli 1057 WT; Escherichia coli, 1057WT, 24 h",128 µM
NC[C@H]1O[C@H](O[C@H]2[C@H](O)[C@@H](O[C@H]3O[C@H](CO)[C@@H](O)[C@H](N)[C@H]3O)[C@H](N)C[C@@H]2N)[C@H](O)[C@@H](O)[C@@H]1O [Kanamycin],MIC,[1],8 µM
same,MIC,E. coli 1057 WT,8 µM
CC[C@H](C)[C@H](NC(=O)CN)C(=O)NCC(=O)N[C@@H](C)C(=O)N[C@H](C(=O)N[C@@H](CC(C)C)C(=O)N[C@@H](CCCCN)C(=O)N[C@H](C(=O)N[C@@H](CC(C)C)C(=O)N[C@H](C(=O)N[C@H](C(=O)NCC(=O)N[C@@H](CC(C)C)C(=O)N1CCC[C@H]1C(=O)N[C@@H](C)C(=O)N[C@@H](CC(C)C)C(=O)N[C@H](C(=O)N[C@@H](CO)C(=O)N[C@@H](Cc1c[nH]c2ccccc12)C(=O)N[C@H](C(=O)N[C@@H](CCCCN)C(=O)N[C@@H](CCCNC(=N)N)C(=O)N[C@@H](CCCCN)C(=O)N[C@@H](CCCNC(=N)N)C(=O)N[C@@H](CCC(N)=O)C(=O)N[C@@H](CCC(N)=O)C(N)=O)[C@@H](C)CC)[C@@H](C)CC)[C@@H](C)O)[C@@H](C)O)C(C)C)C(C)C [Melittin],MIC,[1],16 µM
same,HaCaT cell viability,HaCaT (keratinocytes); 0.25 µM,102.196%
same,HaCaT cell viability,HaCaT (keratinocytes); 0.5 µM,104.998%
same,HaCaT cell viability,HaCaT (keratinocytes); 1 µM,106.041%
same,HaCaT cell viability,HaCaT (keratinocytes); 2 µM,106.484%
same,HaCaT cell viability,HaCaT (keratinocytes); 4 µM,67.714%
same,HaCaT cell viability,HaCaT (keratinocytes); 8 µM,4.039%
same,HaCaT cell viability,HaCaT (keratinocytes); 16 µM,2.958%
same,HaCaT cell viability,HaCaT (keratinocytes); 32 µM,4.046%
same,HEK293T cell viability,[2]; 0.25 µM,101.366%
same,HEK293T cell viability,[2]; 0.5 µM,102.416%
same,HEK293T cell viability,[2]; 1 µM,98.73%
same,HEK293T cell viability,[2]; 2 µM,27.546%
same,HEK293T cell viability,[2]; 4 µM,9.889%
same,HEK293T cell viability,[2]; 8 µM,9.248%
same,HEK293T cell viability,[2]; 16 µM,9.026%
same,MIC,E. coli 1057 WT,8 µM
CO[C@H]1/C=C/O[C@@]2(C)Oc3c(C)c(O)c4c(O)c(c(/C=N/N5CCN(C)CC5)c(O)c4c3C2=O)NC(=O)/C(C)=C\C=C\[C@H](C)[C@H](O)[C@@H](C)[C@@H](O)[C@@H](C)[C@H](OC(C)=O)[C@@H]1C [Rifampicin],MIC,"E. coli 1057 WT; Escherichia coli, 1057WT, 24 h",32 µM
CN[C@@H]1[C@H](O)[C@H](NC)[C@H]2O[C@@]3(O)C(=O)C[C@@H](C)O[C@H]3O[C@@H]2[C@H]1O [Spectinomycin],MIC,"E. coli 1057 WT; Escherichia coli, 1057WT, 24 h",64 µM
[H]/N=C(/N)N[C@H]1[C@H](O)[C@@H](O)[C@H](O[C@@H]2O[C@@H](C)[C@](O)(C=O)[C@H]2O[C@@H]2O[C@@H](CO)[C@H](O)[C@@H](O)[C@@H]2NC)[C@@H](N/C(N)=N\[H])[C@@H]1O [Streptomycin],MIC,"E. coli 1057 WT; Escherichia coli, 1057WT, 24 h",4 µM
CN(C)[C@@H]1C(O)=C(C(N)=O)C(=O)[C@@]2(O)C(O)=C3C(=O)c4c(O)cccc4[C@@](C)(O)[C@H]3C[C@@H]12 [Tetracycline],MIC,"E. coli 1057 WT; Escherichia coli, 1057WT, 24 h",4 µM
Gentamycin,MIC,[1],2 µM
same,MIC,E. coli 1057 WT,2 µM
PHRPRPRPRPWFPPRFP [Rum-1[13-29]],Protein synthesis inhibition,[3],64 µM
same,Minimum inhibitory concentration MHB + 0.9% NaCl,E. coli BW25113,> 256 µM
same,Minimum inhibitory concentration MHB,E. coli BW25113,32 µM
RARRPRPPKPRPPHRP [Rum-1[1-16]],Minimum inhibitory concentration MHB + 0.9% NaCl,E. coli BW25113,> 256 µM
same,Minimum inhibitory concentration MHB,E. coli BW25113,256 µM
RARRPRPPKPRPPHRPRPRPRP [Rum-1[1-22]],Minimum inhibitory concentration MHB + 0.9% NaCl,E. coli BW25113,256 µM
same,Minimum inhibitory concentration MHB,E. coli BW25113,16 µM
RDRRRRPPRPRPPHRPRPRPLPWFPPRFP [Rumicidin-2],MIC,[1],> 64 µM
same,Minimum inhibitory concentration (MIC),[4],1 µM
same,MIC S. aureus ATCC 29213,S. aureus ATCC 29213,> 32 µM
"RGGRLCYCRRRFCVCVGR (Protegrin-1; UniProt P32194 131-148, looked up) [β-hairpin AMP; recombinant]",MIC,[1],0.25 µM
same,MIC,E. coli 1057 WT,0.25 µM
RPPHRPRPRPRPWFPPRFP [Rum-1[11-29]],Protein synthesis inhibition,[3],32 µM
same,Minimum inhibitory concentration MHB + 0.9% NaCl,E. coli BW25113,64 µM
same,Minimum inhibitory concentration MHB,E. coli BW25113,8 µM
same,fold change of MIC vs wild-type rumicidin-1,E. coli BW25113,≥ 4 fold
RPPKPRPPHRPRPRPRPWFPPRFP [Rum-1[6-29]],Protein synthesis inhibition,[3],4 µM
same,Minimum inhibitory concentration MHB + 0.9% NaCl,E. coli BW25113,16 to 32 µM
same,Minimum inhibitory concentration MHB,E. coli BW25113,4 µM
same,fold change of MIC vs wild-type rumicidin-1,E. coli BW25113,two-fold
RPRPPKPRPPHRPRPRPRPWFPPRFP [Rum-1[4-29]],Protein synthesis inhibition,[3],4 µM
same,Minimum inhibitory concentration MHB + 0.9% NaCl,E. coli BW25113,16 µM
same,Minimum inhibitory concentration MHB,E. coli BW25113,4 µM
same,fold change of MIC vs wild-type rumicidin-1,E. coli BW25113,two-fold
RPRPRPRPWFPPRFP [Rum-1[15-29]],Protein synthesis inhibition,[3],256 µM
same,Minimum inhibitory concentration MHB + 0.9% NaCl,E. coli BW25113,> 256 µM
same,Minimum inhibitory concentration MHB,E. coli BW25113,32 µM
RRLRPRRPRLPRPRPRPRPRPR [mini-ChBac7.5Nα],MIC,[1],> 32 µM
